Data published in EP4678634A1, “ANDROGEN RECEPTOR MODULATORS AND USES THEREOF” (Haihe Biopharma Co., Ltd., priority 2023, dated 2024).
pIC50: −log10 of the molar value.

Target: T1, Androgen receptor (AR) (Homo sapiens, UniProt P10275)
T1 construct: expressed in transfected cells; host or cells: HEK293T (AR+ARE/Luc)
T1 sequence (P10275 1-920): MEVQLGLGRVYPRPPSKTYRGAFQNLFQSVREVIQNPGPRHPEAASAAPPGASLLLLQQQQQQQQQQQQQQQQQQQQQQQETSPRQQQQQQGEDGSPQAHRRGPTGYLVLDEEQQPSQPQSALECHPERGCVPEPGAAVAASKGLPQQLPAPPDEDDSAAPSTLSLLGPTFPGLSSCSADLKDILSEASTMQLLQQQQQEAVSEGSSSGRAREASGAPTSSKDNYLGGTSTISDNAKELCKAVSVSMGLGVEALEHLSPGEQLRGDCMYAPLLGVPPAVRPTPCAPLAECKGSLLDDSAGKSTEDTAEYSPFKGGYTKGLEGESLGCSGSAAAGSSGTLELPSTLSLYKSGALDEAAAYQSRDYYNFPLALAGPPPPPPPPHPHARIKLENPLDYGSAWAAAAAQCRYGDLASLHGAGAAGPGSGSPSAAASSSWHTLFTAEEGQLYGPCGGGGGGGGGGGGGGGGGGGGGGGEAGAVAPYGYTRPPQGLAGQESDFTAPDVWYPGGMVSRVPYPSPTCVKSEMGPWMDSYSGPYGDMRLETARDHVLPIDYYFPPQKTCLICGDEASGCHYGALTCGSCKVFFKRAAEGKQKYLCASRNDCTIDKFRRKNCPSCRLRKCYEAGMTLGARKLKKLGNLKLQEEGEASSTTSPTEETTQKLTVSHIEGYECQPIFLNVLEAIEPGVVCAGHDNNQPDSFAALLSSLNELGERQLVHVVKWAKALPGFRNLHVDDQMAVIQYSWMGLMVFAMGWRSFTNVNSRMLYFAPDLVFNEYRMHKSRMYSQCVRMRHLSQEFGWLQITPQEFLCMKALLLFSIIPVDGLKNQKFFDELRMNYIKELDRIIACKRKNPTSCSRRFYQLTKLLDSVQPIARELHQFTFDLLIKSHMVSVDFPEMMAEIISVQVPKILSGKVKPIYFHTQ
Experiment: Androgen receptor (AR) reporter gene assay (luciferase)
Assay type: cell-based
Details: AR+ARE/Luc HEK293T cells, stimulated with 11-KDHT, 24h incubation, Bright-Lite luminescence; read-out: HEK293 Luc IC50
Experimental: Androgen receptor (AR) reporter gene assay
Experimental reagents: 11-Ketodihydrotestosterone (11-KDHT) was purchased from MCE (cat.HY-135794); Enzalutamide (MDV3100) was purchased from Selleck (cat.S1250); Bright-Lite Luciferase Assay kit was purchased from Vazyme (cat.DD1204-01);
• 1. dissolve the described compounds in 100% DMSO at a final concentration of 10 mM. 100 nL each of 400X compound to be tested and 400X 11-KDHT (40 nM) were added to a 384-well assay plate with Echo, followed by 20 µL of complete medium, and centrifuged at 1000 rpm for 1 min, and oscillated for 20-30 min at room temperature. • 2. 20 µL of AR+ARE/Luc HEK293T cells (10,000 cells/well) were inoculated into the assay plate containing the compounds and 11-KDHT, and centrifuged at 1000 rpm for 1 min. The assay plate was incubated in a 37 °C CO2 incubator for 24h. • 3. 40 µL of Bright-Lite assay reagent was transferred to each well of the assay plate, centrifuged at 1000 rpm for 1 min, and shaken for 2 min at room temperature protected from light. Luminescence values (RLU) were measured using Envision. Based on the results, the IC50 values of the compounds described were calculated. Table 1 HEK293-Luc% inhibition IC50 of representative compounds

N#Cc1cc2c(c(Cl)c1OCCC(F)(F)F)CCCC2c1cnc2[nH]ncc2c1 (stereo not shown) [HANT-171]
pIC50: 5.70 to 6.00

N#Cc1cc2c(c(Cl)c1OCCCl)CCCC2Nc1cccc2[nH]ncc12 (stereo not shown) [HANT-173]
pIC50: 6.30 to 9.00

N#Cc1cc2c(c(Cl)c1OCCCl)CCCC2Nc1cc[nH]n1 (stereo not shown) [HANT-175]
pIC50: 5.70 to 6.00

CNC(=O)c1cc2c(c(Cl)c1OCCCl)CCCC2c1cnc2[nH]ncc2c1 (stereo not shown) [HANT-183, 4-chloro-3-(2-chloroethoxy)-N-methyl-8-(1H-pyrazolo[3,4-b]pyridin-5-yl)-5,6,7,8-tetrahydrona phthalene-2-carboxamide]
pIC50: 5.70 to 6.00

NCc1cc2c(c(Cl)c1OCCCl)CCCC2c1cnc2[nH]ncc2c1 (stereo not shown) [HANT-184]
pIC50: 6.00 to 6.30

N#Cc1cc2c(c(Cl)c1OCCCl)CCCC2NC(=O)c1ccc2[nH]ncc2c1 (stereo not shown) [HANT-186]
pIC50: 6.30 to 9.00

N#Cc1cc2c(c(Cl)c1OCCCl)CCCC2NC(=O)c1cn[nH]c1 (stereo not shown) [HANT-187]
pIC50: 6.30 to 9.00

N#Cc1cc2c(c(Cl)c1OCCCl)CCCC2NC(=O)c1cc[nH]n1 (stereo not shown) [HANT-188]
pIC50: 6.00 to 6.30

N#Cc1cc2c(c(Cl)c1OCCCl)CCCC2Nc1ccc2[nH]ncc2n1 (stereo not shown) [HANT-191, 8-((1H-pyrazolo[4,3-b]pyridin-5-yl)amino)-4-chloro-3-(2-chloroethoxy)-5,6,7,8-tetrahydronaph thalene-2-carbonitrile]
pIC50: 6.30 to 9.00

N#Cc1cc2c(c(Cl)c1OCCCl)CCCC2c1cccc2[nH]ncc12 (stereo not shown) [HANT-193, 4-chloro-3-(2-chloroethoxy)-8-(1H-indazol-7-yl)-5,6,7,8-tetrahydronaphthalene-2-cyanide]
pIC50: 6.30 to 9.00

N#Cc1cc2c(c(Cl)c1OCCCl)CCCC2c1cccc2cn[nH]c12 (stereo not shown) [HANT-194]
pIC50: 6.30 to 9.00

CCCOc1c(C#N)cc2c(c1Cl)CCCC2c1cnc2[nH]ncc2c1 (stereo not shown) [HANT-196, 4-chloro-3-propoxy-8-(1H-pyrazolo[3,4-b]pyridin-5-yl)-5,6,7,8-tetrahydronaphthalene-2-carbo nitrile]
pIC50: 6.30 to 9.00

N#Cc1cc2c(c(Cl)c1OCCCl)CCCC2c1cn[nH]c1 (stereo not shown) [HANT-200]
pIC50: 6.00 to 6.30

N#Cc1cc2c(c(Cl)c1OCCCl)CCCC2c1cnc2[nH]c(=O)ccc2c1 (stereo not shown) [HANT-202]
pIC50: 6.30 to 9.00

N#Cc1cc2c(c(Cl)c1OCCCl)CCCC2c1ccc(N)nc1 (stereo not shown) [HANT-203]
pIC50: 6.30 to 9.00

N#Cc1cc2c(c(Cl)c1OCCCl)CCC[C@@H]2c1cnc(N)nc1 [HANT-204A]
pIC50: < 5.70

N#Cc1cc2c(c(Cl)c1OCCCl)CCC[C@H]2c1cnc(N)nc1 [HANT-204B]
pIC50: 6.30 to 9.00

CC(=O)Nc1ccc(C2CCCc3c2cc(C#N)c(OCCCl)c3Cl)cn1 (stereo not shown) [HANT-205]
pIC50: 6.30 to 9.00

CNC(=O)Oc1ccc(C2CCCc3c2cc(C#N)c(OCCCl)c3Cl)cc1 (stereo not shown) [HANT-206, 4-(5-chloro-6-(2-chloroethoxy)-7-cyano-1,2,3,4-tetrahydronaphthalen-1-yl)phenyl methylcarbamate]
pIC50: 6.30 to 9.00

N#Cc1cc2c(c(Cl)c1OCCCl)CCCC2c1cnc2[nH]c(=O)oc2c1 (stereo not shown) [HANT-207, 4-chloro-3-(2-chloroethoxy)-8-(2-oxo-2,3-dihydrooxazolo[4,5-b]pyridin-6-yl)-5,6,7,8-tetrahydr onaphthalene-2-carbonitrile]
pIC50: 6.00 to 6.30

N#Cc1cc2c(c(Cl)c1OCCCl)CCCC2c1ccc2oc(=O)[nH]c2c1 (stereo not shown) [HANT-208]
pIC50: 6.30 to 9.00

N#Cc1cc2c(c(Cl)c1OCCCl)CCCC2NC(=O)C1CCCCC1 (stereo not shown) [HANT-209]
pIC50: 6.00 to 6.30

N#Cc1cc2c(c(Cl)c1OCCCl)CCCC2NC(=O)c1ccccc1 (stereo not shown) [HANT-212]
pIC50: 6.30 to 9.00

N#Cc1cc2c(c(Cl)c1OCCCl)CCCC2NC(=O)c1cccnc1 (stereo not shown) [HANT-213]
pIC50: 5.70 to 6.00

N#Cc1cc2c(c(Cl)c1OCCCl)CCCC2NC(=O)c1ccncc1 (stereo not shown) [HANT-214]
pIC50: 6.00 to 6.30

N#Cc1cc2c(c(Cl)c1OCCCl)CCCC2NC(=O)c1ccccn1 (stereo not shown) [HANT-215]
pIC50: 6.30 to 9.00

N#Cc1cc2c(c(Cl)c1OCCCl)CCCC2c1cnc2[nH]nc(-c3ccncc3)c2c1 (stereo not shown) [HANT-218, 4-chloro-3-(2-chloroethoxy)-8-(3-(pyridin-4-yl)-1H-pyrazolo[3,4-b]pyridin-5-yl)-5,6,7,8-tetrah ydronaphthalene-2-carbonitrile]
pIC50: 6.30 to 9.00

N#Cc1cc2c(c(Cl)c1OCCCl)CCCC2c1cnc2[nH]nc(C3CCOCC3)c2c1 (stereo not shown) [HANT-220, 4-chloro-3-(2-chloroethoxy)-8-(3-(tetrahydro-2H-pyran-4-yl)-1H-pyrazolo[3,4-b]pyridin-5-yl)-5,6,7,8-tetrahydronaphthalene-2-cyanide]
pIC50: < 5.70

N#Cc1cc2c(c(Cl)c1OCCCl)CCCC2Nc1cc2cn[nH]c2cn1 (stereo not shown) [HANT-224]
pIC50: 6.30 to 9.00

N#Cc1cc2c(c(Cl)c1OCCCl)CCCC2Nc1ccc2[nH]ncc2c1 (stereo not shown) [HANT-225, 8-((1H-indazol-5-yl)amino)-4-chloro-3-(2-chloroethoxy)-5,6,7,8-tetrahydronaphthalene-2-carb onitrile]
pIC50: 6.30 to 9.00

N#Cc1cc2c(c(Cl)c1OCCCl)CCCC2Nc1ccccc1 (stereo not shown) [HANT-226]
pIC50: 6.30 to 9.00

N#Cc1cc2c(c(Cl)c1OCCCl)CCCC2Nc1cccnc1 (stereo not shown) [HANT-227]
pIC50: 6.30 to 9.00

N#Cc1cc2c(c(Cl)c1OCCCl)CCCC2Nc1ccncc1 (stereo not shown) [HANT-228]
pIC50: < 5.70

N#Cc1cc2c(c(Cl)c1OCCCl)CCCC2Nc1ccc2cn[nH]c2c1 (stereo not shown) [HANT-229, 8-((1H-indazol-6-yl)amino)-4-chloro-3-(2-chloroethoxy)-5,6,7,8-tetrahydronaphthalene-2-carb onitrile]
pIC50: 6.30 to 9.00

N#Cc1cc2c(c(Cl)c1OCCCl)CCCC2NC(=O)c1ccc(Cl)cc1 (stereo not shown) [HANT-232]
pIC50: 6.30 to 9.00

N#Cc1cc2c(c(Cl)c1OCCCl)CCCC2NC(=O)c1cccc(Cl)c1 (stereo not shown) [HANT-233]
pIC50: 6.30 to 9.00

N#Cc1ccc(C(=O)NC2CCCc3c2cc(C#N)c(OCCCl)c3Cl)cc1 (stereo not shown) [HANT-234]
pIC50: 6.30 to 9.00

COc1ccc(C(=O)NC2CCCc3c2cc(C#N)c(OCCCl)c3Cl)cc1 (stereo not shown) [HANT-235]
pIC50: 6.00 to 6.30

N#Cc1cc2c(c(Cl)c1OCCCl)CCCC2Nc1cn[nH]c1 (stereo not shown) [HANT-239, 8-((1H-pyrazol-4-yl)amino)-4-chloro-3-(2-chloroethoxy)-5,6,7,8-tetrahydronaphthalene-2-carb onitrile]
pIC50: 6.00 to 6.30

N#Cc1cc2c(c(Cl)c1OCCCl)CCCC2Nc1ccc(N)nc1 (stereo not shown) [HANT-240, 8-((6-aminopyridin-3-yl)amino)-4-chloro-3-(2-chloroethoxy)-5,6,7,8-tetrahydronaphthalene-2-c arbonitrile]
pIC50: 6.00 to 6.30

COc1ccc(NC2CCCc3c2cc(C#N)c(OCCCl)c3Cl)cn1 (stereo not shown) [HANT-241]
pIC50: 6.30 to 9.00

N#Cc1cc2c(c(Cl)c1OCCCl)CCCC2c1cncnc1 (stereo not shown) [HANT-246]
pIC50: 6.30 to 9.00

CNc1ncc(C2CCCc3c2cc(C#N)c(OCCCl)c3Cl)cn1 (stereo not shown) [HANT-247, 4-chloro-3-(2-chloroethoxy)-8-(2-(methylamino)pyrimidin-5-yl)-5,6,7,8-tetrahydronaphthalene-2-carbonitrile]
pIC50: 6.30 to 9.00

N#Cc1cc2c(c(Cl)c1OCCCl)CCCC2c1cnc(NCCO)nc1 (stereo not shown) [HANT-248, 4-chloro-3-(2-chloroethoxy)-8-(2-((2-hydroxyethyl)amino)pyrimidin-5-yl)-5,6,7,8-tetrahydrona phthalene-2-carbonitrile]
pIC50: 6.30 to 9.00

N#Cc1cc2c(c(Cl)c1OCCCl)CCCC2c1cnc(N)cn1 (stereo not shown) [HANT-249]
pIC50: 6.00 to 6.30

N#Cc1cc2c(c(Cl)c1OCCCl)CCCC2Nc1cncnc1 (stereo not shown) [HANT-250]
pIC50: 6.30 to 9.00

N#Cc1cc2c(c(Cl)c1OCCCl)CCCC2Nc1cnc(N)nc1 (stereo not shown) [HANT-251]
pIC50: 6.30 to 9.00

N#Cc1cc2c(c(Cl)c1OCCCl)CCCC2Nc1ccccn1 (stereo not shown) [HANT-252]
pIC50: 6.30 to 9.00

N#Cc1cc2c(c(Cl)c1OCCCl)CCCC2Nc1cncc(F)c1 (stereo not shown) [HANT-254]
pIC50: 6.30 to 9.00

N#Cc1cc2c(c(Cl)c1OCCCl)CCCC2c1cccnc1 (stereo not shown) [HANT-255]
pIC50: 6.30 to 9.00

N#Cc1cc2c(c(Cl)c1OCCCl)CCCC2c1cncc(N)c1 (stereo not shown) [HANT-256]
pIC50: 5.70 to 6.00

CCCOc1c(C#N)cc2c(c1Cl)CCCC2c1cnc(N)nc1 (stereo not shown) [HANT-257]
pIC50: 6.30 to 9.00
